Literature values, collected in patent US20230084129A1, “PHARMACEUTICAL COMPOSITION COMPRISING ESOMEPRAZOLE AND SODIUM BICARBONATE HAVING EXCELLENT RELEASE PROPERTIES” (Chong Kun Dang Pharmaceutical Corp., priority 2020, published 2023).

Settings: aqueous solution having a pH of 3 or less

- degradation half-life: less than 10 minutes
Structure (SMILES): COc1ccc2nc([S@@+]([O-])Cc3ncc(C)c(OC)c3C)[nH]c2c1 [esomeprazole, (S)-5-methoxy-2-[(4-methoxy-3,5-dimethyl-2-pyridinyl)-methyl]sulfinyl-1H-benzimidazole]
